What was measured:
Type in all cases: in vivo
[1] = test system: adult cat fleas (Ctenocephalides felis); test: Ctenocephalides felis in-vitro contact test, adult cat flea; conditions: 5 μg/cm^2 (=500 g/ha), after 48 hours
Experimental: Ctenocephalides felis—In-Vitro Contact Tests Adult Cat Flea
(§1) 9 mg compound is solved in 1 mL acetone and diluted with acetone to the desired concentration. 250 μL of the test solution is filled in 25 mL glass test tubes and homogeneously distributed on the inner walls by rotation and tilting on a shaking device (2 h at 30 rpm). With a compound concentration of 900 ppm, an inner surface of 44.7 cm^2 and a homogeneous distribution, a dose of 5 μg/cm^2 is achieved.
After the solvent has evaporated, each test tube is filled with 5-10 adult cat fleas (Ctenocephalides felis), closed with a perforated lid and incubated in a lying position at room temperature and relative humidity. After 48 hours efficacy is determined. The fleas are patted on the ground of the tubes and are incubated on a heating plate at 45-50° C. for at most 5 minutes. Immotile or uncoordinated moving fleas, which are not able to escape the heat by climbing upwards, are marked as dead or moribund.
An efficacy of 100% means all fleas are dead or moribund; 0% means no fleas are dead or moribund.

[2] = test system: fall armyworm larvae (Spodoptera frugiperda); test: whole plant or invertebrate; conditions: 168 h
Outline: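 Percent kill of Spodoptera frugiperda caterpillars, read 7 days after infestation of dried, spray-treated Zea mays leaf pieces. Spray preparation: compound in acetone plus dimethylformamide, diluted with emulsifier-containing water.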

[3] = test system: adult brown dog ticks (Rhipicephalus sanguineus); test: Rhipicephalus sanguineus in-vitro contact test, adult brown dog ticks; conditions: 48 h, read-out: efficacy (ticks dead or moribund)
Experimental: Rhipicephalus sanguineus—In-Vitro Contact Tests with Adult Brown Dog Ticks
as §1
After the solvent has evaporated, each test tube is filled with 5-10 adult brown dog ticks (Rhipicephalus sanguineus), closed with a perforated lid and incubated in a lying position at room temperature and relative humidity. After 48 hours efficacy is determined. The ticks are patted on the ground of the tubes and are incubated on a heating plate at 45-50° C. for at most 5 minutes. Immotile or uncoordinated moving ticks, which are not able to escape the heat by climbing upwards, are marked as dead or moribund.
An efficacy of 100% means all ticks are dead or moribund; 0% means no ticks are dead or moribund.

[4] = test system: larvae of the banded cucumber beetle (Diabrotica balteata); test: Diabrotica balteata spray test; conditions: 168 h, 100 g/ha (=32 μg/well), after 7 days, read-out: efficacy (seedling growth)
Outline: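 Efficacy is seedling survival after 7 days, where 0% means no seedlings grew and 100% means growth equal to untreated, uninfested controls. Wheat seedlings, germinated on agar for 1 day, were sprayed with the aqueous emulsifier dilution (acetone/DMF solvent) and then exposed to 10–20 banded cucumber beetle larvae.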

[5] = test system: cattle tick larvae (Rhipicephalus microplus), strain Parkhurst, resistant against synthetic pyrethroids; test: Rhipicephalus (Boophilus) microplus in-vitro contact test, larval cattle tick; conditions: 5 μg/cm^2 (=500 g/ha), after 48 hours
Outline: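 After drying, 20-50 larvae were held per tube at 27° C., 85% relative humidity for 48 h, and efficacy was scored as % dead or moribund.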

[6] = test system: green peach aphid (Myzus persicae); test: Myzus persicae spray test (MYZUPE); conditions: 120 h; for mortality at 100 g/ha: after 5 days
Outline: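 Percent aphid kill, with 0% meaning none killed, was read 5 days after spraying. The preparation (acetone–DMF solvent, water with 1000 ppm emulsifier) was applied to Brassica pekinensis leaf disks carrying mixed-instar green peach aphids.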

[7] = test system: adult mosquitoes Aedes aegypti strain MONHEIM; test: Aedes aegypti test (AEDSAE surface treatment & contact assay); conditions: 24 hours after contact, read-out: efficacy (mortality); for mortality at 20 mg/m2: surface concentration 20 mg/m^2, 30 min exposure; for mortality at 4 mg/m2: surface concentration 4 mg/m^2, 30 min exposure
Experimental: Aedes aegypti Test (AEDSAE Surface Treatment & Contact Assay)
(§2) Solvent: Aceton+2000 ppm rapeseed oil methyl ester (RME)
This solution is pipetted onto a glazed tile and after evaporation of the acetone, adult mosquitoes of the species Aedes aegypti strain MONHEIM are placed onto the dried surface. The exposure time is 30 minutes. Mortality in percent (%) is determined 24 hours after contact of the insects to the treated surface. 100% mortality means that all tested insects are dead, whereas 0% means that no insect died.

[8] = test system: larvae of the southern green stink bug (Nezara viridula); test: whole plant or invertebrate; conditions: 96 h
Outline: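 Percent mortality of southern green stink bug larvae was recorded at day 4, with 100% meaning all dead. The larvae were placed on barley sprayed with the test solution. That solution was prepared from acetone/dimethylformamide concentrate diluted in emulsifier-containing water (1000 ppm).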

[9] = test system: adult flies Musca domestica strain WHO-N; test: Musca domestica test (MUSCDO surface treatment & contact assay); conditions: 24 hours after contact, read-out: efficacy (mortality); for mortality at 20 mg/m2: surface concentration 20 mg/m^2, 30 min exposure
Experimental: Musca domestica Test (MUSCDO Surface Treatment & Contact Assay)
as §2
This solution is pipetted onto a glazed tile and after evaporation of the acetone, adult flies of the species Musca domestica strain WHO-N are placed onto the dried surface. The exposure time is 30 minutes. Mortality in percent (%) is determined 24 hours after contact of the insects to the treated surface. 100% mortality means that all tested insects are dead, whereas 0% means that no insect died.

[10] = test system: brown planthopper (Nilaparvata lugens); test: Nilaparvata lugens spray test; conditions: 96 h
Outline: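 Rice plants (Oryza sativa) sprayed with compound formulated in acetone/DMF with alkylarylpolyglycol ether emulsifier (1000 ppm in diluting water), then infested with planthoppers. Mortality (%) scored after 4 days; 100% = all insects killed, 0% = none killed.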

Compound | efficacy (fleas dead or moribund) [1] [%] | mortality at 100 g/ha [2] [%] | pest or weed control at 5 µg/cm2, 500 g/ha [3] [%] | pest or weed control at 32 µg/disc, 100 g/ha [4] [%] | efficacy (larvae dead or moribund) [5] [%] | mortality at 100 g/ha [6] [%] | mortality at 20 mg/m2 [7] [%] | mortality at 100 g/ha [8] [%] | mortality at 500 g/ha [8] [%] | mortality at 4 mg/m2 [7] [%] | mortality at 4 mg/m2 ([9]; surface concentration 4 mg/m^2, 30 min exposure) [%] | mortality at 20 mg/m2 [9] [%] | mortality at 500 g/ha [10] [%] | Emax at 20 g/ha ([2]; SPODFR, 20 g ai/ha, 7 dat (Table 4), read-out: % Efficacy) [%] | Emax at 100 g/ha ([2]; SPODFR, 100 g ai/ha, 7 dat (Table 4), read-out: % Efficacy) [%] | Emax at 4 g/ha ([6]; MYZUPE, 4 g ai/ha, 5 dat (Table 4), read-out: % Efficacy) [%] | Emax at 20 g/ha ([6]; MYZUPE, 20 g ai/ha, 5 dat (Table 4), read-out: % Efficacy) [%] | Emax at 100 g/ha ([6]; MYZUPE, 100 g ai/ha, 5 dat (Table 4), read-out: % Efficacy) [%]
C[C@H](NC(=O)c1cc(Br)cc(OC(F)F)c1)c1ncnn1-c1cc(C#N)ncn1 [I-3] | 100 | 100 | 100 | 100 | 100 | 90 | 80 to 100 | 90 | 90 | – | – | – | – | – | – | – | – | –
Cc1nc([C@H](C)NC(=O)c2cc(C(F)(F)F)cc(C(F)(F)F)c2)n(-c2cc(C#N)ncn2)n1 [I-5] | 90 | 100 | 100 | 100 | 100 | 90 | 80 to 100 | – | – | – | – | – | – | – | – | – | – | –
C[C@H](NC(=O)c1cc(Br)cc(Br)c1)c1ncnn1-c1cc(C(N)=O)ncn1 [I-34, 6-[5-[(1S)-1-[(3,5-dibromobenzoyl)amino]ethyl]-1,2,4-triazol-1-yl]pyrimidine-4-carboxamide] | 100 | 100 | 100 | 100 | 100 | 90 | 80 to 100 | 100 | 100 | 80 to 100 | – | – | – | – | – | – | – | –
C[C@H](NC(=O)c1cc(C#N)cc(OC(F)(F)F)c1)c1nc(C2CC2)nn1-c1cc(C(N)=O)ncn1 [I-39] | – | 100 | – | 100 | – | – | – | – | – | – | 80 to 100 | 80 to 100 | 100 | – | – | – | – | –
C[C@H](NC(=O)c1cccc(OC(F)(F)F)c1)c1ncnn1-c1cc(C(N)=O)ncn1 [I-50] | 100 | 100 | 100 | 100 | 100 | 90 | – | – | – | – | – | – | 100 | – | – | – | – | –
CCN(C)C(=O)c1cc(-n2ncnc2[C@H](C)NC(=O)c2cc(C(F)(F)F)cc(C(F)(F)F)c2)ncn1 [I-64] | 100 | 100 | 100 | 100 | 100 | 90 | – | – | 100 | – | – | – | 100 | – | – | – | – | –
CNC(=O)c1cc(-n2ncnc2[C@H](C)NC(=O)c2cc(OC(F)F)cc(C3CC3)c2)ncn1 [I-67] | 100 | 100 | 100 | 100 | 100 | 90 | – | – | 100 | – | – | – | 100 | – | – | – | – | –
C[C@H](NC(=O)c1cc(C(F)(F)F)cc(C(F)(F)F)c1)c1ncnn1-c1cc(C(=O)N(C)CC2CC2)ncn1 [I-76] | 100 | 100 | 100 | 100 | 100 | – | – | – | 100 | – | – | – | 100 | – | – | – | – | –
C[C@H](NC(=O)c1cc(F)cc(OC(F)(F)F)c1)c1ncnn1-c1cc(C(N)=O)ncn1 [I-80] | 100 | 100 | 100 | 100 | 100 | 100 | – | – | 100 | – | – | – | 100 | – | – | – | – | –
Cc1nc([C@H](C)NC(=O)c2cc(Cl)cc(OC(F)(F)F)c2)n(-c2cc(C(N)=O)ncn2)n1 [I-85] | 100 | 100 | 100 | 100 | 100 | 100 | – | – | 100 | – | – | – | 90 | – | – | – | – | –
CNC(=O)c1cc(-n2ncnc2[C@H](C)NC(=O)c2cc(Cl)cc(S(=O)(=O)C(F)(F)F)c2)ncn1 [I-86] | – | 100 | – | 100 | – | 100 | 80 to 100 | – | 100 | 80 to 100 | – | 80 to 100 | – | 100 | 100 | 100 | 100 | 100
C[C@H](NC(=O)c1cc(OC(F)F)cc(OC(F)(F)F)c1)c1ncnn1-c1cc(C(N)=O)ncn1 [I-141] | 100 | 100 | 100 | 100 | 100 | 90 | – | – | 100 | – | – | – | 100 | – | – | – | – | –

From patent US12612386B2, “Heteroaryl-triazole compounds as pesticides” (Bayer Aktiengesellschaft, priority 2020, dated 2026)
